According to ChEMBL document CHEMBL1201862, “PubChem BioAssay data set” (2004):
Active and inactive are the calls of the source.

What was measured:
INS1 = assay: beta cell apoptosis inhibitors, cytokine rescue, dose response, luminescence, retest (AID 449756); assay type: functional, cell-based; conditions: Rattus norvegicus;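 further: cell death triggered by IL-1 beta plus TNF-alpha plus IFN-gamma mixture; protective hits raise ATP signal compared with cytokine alone wells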
[1] = HEK293T cytotoxicity, dose response, cytotoxicity control for miR-122 modulator project, cell-based, inhibitor set, cherry-pick, set 2 (AID 720697); assay type: functional
[2] = HEK293T cytotoxicity, dose response, cytotoxicity control for miR-122 modulator project, cell-based, activator set, cherry-pick (AID 720690); assay type: functional;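 further: HEK293T human cells scored for general mammalian cytotoxicity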
[3] = molecular target: T1, Zinc finger protein mex-5 (Caenorhabditis elegans, UniProt Q9XUB2); assay: MEX-5/TCR-2 RNA interaction inhibitors, dose response, biochemical, C. elegans, fluorescence polarization (AID 1960)
T1 sequence (Q9XUB2 whole entry): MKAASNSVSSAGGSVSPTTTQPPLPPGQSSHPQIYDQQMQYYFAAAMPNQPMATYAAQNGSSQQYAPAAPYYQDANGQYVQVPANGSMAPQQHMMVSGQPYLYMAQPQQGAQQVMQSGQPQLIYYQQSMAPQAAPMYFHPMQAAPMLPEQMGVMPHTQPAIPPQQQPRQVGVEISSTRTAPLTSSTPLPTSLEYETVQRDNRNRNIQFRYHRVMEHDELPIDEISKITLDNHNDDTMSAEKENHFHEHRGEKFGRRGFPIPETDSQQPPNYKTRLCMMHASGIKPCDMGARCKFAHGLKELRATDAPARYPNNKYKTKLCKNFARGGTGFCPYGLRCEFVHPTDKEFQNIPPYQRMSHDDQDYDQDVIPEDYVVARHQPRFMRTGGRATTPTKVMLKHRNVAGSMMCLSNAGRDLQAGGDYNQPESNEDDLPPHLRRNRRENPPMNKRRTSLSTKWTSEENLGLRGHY

[4] = molecular target: T2, Short transient receptor potential channel 4 (Mus musculus, UniProt Q9QUQ5); assay: mouse TRPC4 channel activators, dose response, cell-based, HEK293 TRPC4/mu-opioid, Fluo-4 calcium (AID 434937); assay type: functional
T2 sequence (Q9QUQ5 whole entry): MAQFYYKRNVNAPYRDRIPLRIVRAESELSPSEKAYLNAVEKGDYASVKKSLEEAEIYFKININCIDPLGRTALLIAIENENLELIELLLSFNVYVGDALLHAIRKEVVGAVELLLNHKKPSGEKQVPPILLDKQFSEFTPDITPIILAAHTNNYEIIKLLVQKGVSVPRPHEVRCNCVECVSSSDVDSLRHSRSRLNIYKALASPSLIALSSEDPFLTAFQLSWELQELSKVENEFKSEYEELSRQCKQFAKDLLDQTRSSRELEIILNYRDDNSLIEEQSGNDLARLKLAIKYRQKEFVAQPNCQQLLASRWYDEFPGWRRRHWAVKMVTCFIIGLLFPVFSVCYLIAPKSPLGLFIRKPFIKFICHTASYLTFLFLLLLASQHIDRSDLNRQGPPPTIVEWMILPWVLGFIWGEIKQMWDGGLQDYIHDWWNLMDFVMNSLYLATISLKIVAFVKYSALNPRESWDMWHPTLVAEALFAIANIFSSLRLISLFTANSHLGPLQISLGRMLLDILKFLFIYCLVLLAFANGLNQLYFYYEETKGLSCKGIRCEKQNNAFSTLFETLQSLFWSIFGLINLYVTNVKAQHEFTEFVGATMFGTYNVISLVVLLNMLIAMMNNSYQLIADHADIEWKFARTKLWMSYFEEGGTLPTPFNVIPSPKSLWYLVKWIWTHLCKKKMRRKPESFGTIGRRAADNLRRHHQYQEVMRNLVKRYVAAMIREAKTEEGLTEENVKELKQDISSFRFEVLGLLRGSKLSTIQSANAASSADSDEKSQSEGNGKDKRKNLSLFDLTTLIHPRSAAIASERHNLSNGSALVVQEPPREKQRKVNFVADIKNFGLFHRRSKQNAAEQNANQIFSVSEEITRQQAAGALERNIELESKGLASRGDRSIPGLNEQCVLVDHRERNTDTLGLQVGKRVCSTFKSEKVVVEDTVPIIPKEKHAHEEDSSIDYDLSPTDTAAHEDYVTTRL

[5] = molecular target: T3, Long-chain-fatty-acid--AMP ligase FadD28 (Mycobacterium tuberculosis, UniProt P9WQ59); assay: Fluorescence polarization aasay to screen for inhibitors that compete for the binding of FadD28 to a bisubstrate Measured in Biochemical System Using Plate Reader - 2147-01_Inhibitor_Dose_CherryPick_Activity.; assay type: functional, Mycobacterium tuberculosis H37Rv
T3 sequence (P9WQ59 whole entry): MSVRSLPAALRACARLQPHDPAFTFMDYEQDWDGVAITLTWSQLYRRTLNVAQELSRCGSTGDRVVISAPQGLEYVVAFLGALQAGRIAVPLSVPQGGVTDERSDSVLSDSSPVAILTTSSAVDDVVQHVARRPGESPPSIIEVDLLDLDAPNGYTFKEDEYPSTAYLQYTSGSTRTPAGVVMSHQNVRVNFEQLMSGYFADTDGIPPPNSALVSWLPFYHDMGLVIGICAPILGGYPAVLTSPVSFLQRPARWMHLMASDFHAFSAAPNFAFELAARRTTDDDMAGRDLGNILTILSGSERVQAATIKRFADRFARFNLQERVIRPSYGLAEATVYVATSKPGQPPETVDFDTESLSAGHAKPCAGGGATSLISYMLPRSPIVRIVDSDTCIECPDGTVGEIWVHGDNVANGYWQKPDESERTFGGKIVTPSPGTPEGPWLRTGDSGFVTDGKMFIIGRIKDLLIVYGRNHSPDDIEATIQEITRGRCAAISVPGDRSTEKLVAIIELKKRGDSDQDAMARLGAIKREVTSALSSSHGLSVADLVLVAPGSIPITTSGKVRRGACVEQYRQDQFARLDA

## O=C(Nc1cccc(NC(=O)c2ccccc2Cl)c1)c1ccc([N+](=O)[O-])o1
INS1
  AC50: 7.35 µM (active)

## COc1ccc(CC2=CC(=O)c3ccccc3C2=O)cc1
[1]
  AC50: 10.2 µM (active)
[2]
  AC50: 5.27 µM (active)

## c1coc(-c2nnc(-c3ccco3)nn2)c1
[3]
  EC50: 7.69 µM (active)

## Cn1c(O)c(/C=N/NC(=O)c2cc3ccccc3cc2O)c2ccccc21
[4]
  EC50: 5.96 µM (active)
[5]
  AC50: > 100 µM (inactive)
